Where two headings read alike, the source gives them in different places.
What was measured:
[1] = target: T1, human androgen receptor (AR) (Homo sapiens, UniProt P10275); assay: C2C12 AR/ARE reporter assay; format: cell-based
T1 construct: expressed in transfected cells; host or cells: mouse myoblast C2C12 cells, transiently co-transfected
T1 sequence (P10275 1-920): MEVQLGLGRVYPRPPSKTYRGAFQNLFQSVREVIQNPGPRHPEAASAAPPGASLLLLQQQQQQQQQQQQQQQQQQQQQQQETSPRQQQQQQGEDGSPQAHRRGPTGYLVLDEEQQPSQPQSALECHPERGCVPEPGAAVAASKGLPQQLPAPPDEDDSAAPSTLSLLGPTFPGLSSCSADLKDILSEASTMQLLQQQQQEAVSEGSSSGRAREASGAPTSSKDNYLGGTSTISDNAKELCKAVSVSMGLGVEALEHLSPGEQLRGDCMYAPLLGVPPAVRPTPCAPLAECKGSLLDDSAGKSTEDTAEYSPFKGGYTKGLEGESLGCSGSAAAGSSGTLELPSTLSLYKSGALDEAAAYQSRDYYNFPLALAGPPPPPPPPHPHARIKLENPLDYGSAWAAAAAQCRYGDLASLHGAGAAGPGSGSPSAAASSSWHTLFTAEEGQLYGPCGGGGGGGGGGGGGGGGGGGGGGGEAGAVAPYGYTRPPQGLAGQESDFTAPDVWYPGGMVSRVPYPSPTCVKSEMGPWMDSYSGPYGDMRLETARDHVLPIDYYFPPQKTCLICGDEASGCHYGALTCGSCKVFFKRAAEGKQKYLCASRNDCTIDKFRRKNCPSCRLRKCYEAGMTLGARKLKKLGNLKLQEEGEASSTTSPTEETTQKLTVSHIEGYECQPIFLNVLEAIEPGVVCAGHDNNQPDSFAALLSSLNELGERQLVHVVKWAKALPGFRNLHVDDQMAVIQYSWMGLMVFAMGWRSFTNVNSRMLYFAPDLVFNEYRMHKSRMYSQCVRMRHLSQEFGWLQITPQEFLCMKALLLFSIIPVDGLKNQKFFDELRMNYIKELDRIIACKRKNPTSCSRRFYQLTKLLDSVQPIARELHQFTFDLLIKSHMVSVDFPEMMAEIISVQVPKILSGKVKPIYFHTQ
Procedure, shortened: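 Mouse C2C12 myoblasts co-transfected with AR/ARE reporter were plated in charcoal-stripped serum and treated for 48 h with compound from about 0.01 nM to 10 μM. Luciferase activity gave EC50 by 4-parameter logistic fit. Efficacy is expressed as % of maximal stimulation by 10 nM methyltrienolone.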

[2] = target: T2, human AR (androgen receptor) (Homo sapiens, UniProt P10275); assay: Steroid hormone nuclear receptor binding assay, AR binding
T2 construct: expressed in transfected cells; host or cells: 293 cells (293-AR lysate)
T2 sequence (P10275 1-920): T1 sequence (P10275 1-920)
Procedure, shortened: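 Competition binding with lysates of 293 cells overexpressing human AR, [3H]-methyltrienolone tracer, compounds from about 0.01 nM to 10 μM, overnight at 4 °C; non-specific binding set with 500 nM methyltrienolone. Bound tracer counted by scintillation after charcoal-dextran separation; IC50 converted to Ki by Cheng-Prusoff using Kd from saturation binding.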

[3] = C2C12 AR/ARE reporter assay, average of n trials, read-out: C2C12 % Efficacy
[4] = C2C12 AR/ARE reporter assay, average of n trials, read-out: C2C12 EC50
[5] = average of n trials, read-out: AR binding Ki
[6] = C2C12, read-out: C2C12 % Efficacy

`CC(C)C(=O)NC1CCc2c(c3cc(C#N)ccc3n2Cc2ccsc2)C1` (centres unmarked) [Example 157, N-(6-Cyano-9-thiophen-3-ylmethyl-2,3,4,9-tetrahydro-1H-carbazol-3-yl)-isobutyramide] gave an Emax [1, 3] of 72.3%, an EC50 [1, 4] of 3 nM and a Ki [2, 5] of 5.2 nM.
`CC(C)C(=O)N[C@@H]1CCc2c(c3cc(C#N)ccc3n2Cc2csc(Cl)n2)C1` [Example 154, (R)-N-[9-(2-Chloro-thiazol-4-ylmethyl)-6-cyano-2,3,4,9-tetrahydro-1H-carbazol-3-yl]-isobutyramide] showed an EC50 [1] of 4.4 nM, an Emax [1, 6] of 119% and a Ki [2] of 2.2 nM.
`CC(C)C(=O)NC1CCc2c(c3cc(C#N)ccc3n2Cc2nccs2)C1` (centres unmarked) [Example 149, N-(6-Cyano-9-thiazol-2-ylmethyl-2,3,4,9-tetrahydro-1H-carbazol-3-yl)-isobutyramide] was tested, and the Emax [1, 3] was 91.4%, the EC50 [1, 4] was 17.6 nM and the Ki [2, 5] was 18 nM.
Work on `CC(C)C(=O)N[C@@H]1CCc2c(c3cc(C(=O)O)ccc3n2Cc2cccc(F)c2)C1` [Example 188] yielded an Emax [1, 3] of 82.4%, an EC50 [1, 4] of 794 nM and a Ki [2, 5] of 952 nM.
For `COC(=O)c1ccc2c(c1)c1c(n2Cc2cccc(F)c2)CC[C@@H](NC(=O)C(C)C)C1` [Example 187, (R)-9-(3-fluorobenzyl)-6-isobutyrylamino-6,7,8,9-tetrahydro-5H-carbazole-3-carboxylic acid methyl ester], the EC50 [1] was 2.4 nM, the Emax [1, 6] was 77.8% and the Ki [2] was 2.3 nM.
`CC(C)C(=O)NC1CCc2c(c3cc(Cl)ccc3n2Cc2cccc(Br)c2)C1` (centres unmarked) [Example 81] showed an EC50 [1] of 94 nM, an Emax [1, 6] of 81.9% and a Ki [2] of 11.3 nM.
`CC(C)C(=O)NC1CCc2c(c3cc(-c4ccncc4)ccc3n2Cc2cccc(F)c2)C1` (centres unmarked) [Example 134] showed an Emax [1, 3] of 37.6%, an EC50 [1, 4] of 365 nM and a Ki [2, 5] of 380 nM.
Work on `COc1ccc(Cn2c3c(c4cc(C#N)ccc42)CC(NC(=O)C(C)C)CC3)cc1` (centres unmarked) [Example 87] yielded an Emax [1, 6] of 10.6% and a Ki [2] of 17.7 nM.
With `CC(C)C(=O)N[C@@H]1CCc2c(c3cc(C#N)ccc3n2Cc2cccc(F)n2)C1` [Example 183, (R)-N-[6-Cyano-9-(6-fluoro-pyridin-2-ylmethyl)-2,3,4,9-tetrahydro-1H-carbazol-3-yl]-isobutyramide] the Emax [1, 3] was 95.3%, the EC50 [1, 4] was 0.7 nM and the Ki [2, 5] was 4.3 nM.
For `O=C(NC1CCc2c(c3cc(Br)ccc3n2Cc2cccc(F)c2)C1)C(F)(F)F` (centres unmarked) [Example 174], the Emax [1, 3] was 65.2%, the EC50 [1, 4] was 88 nM and the Ki [2, 5] was 7.1 nM.
`COC(=O)NC1CCc2c(c3cc(C#N)ccc3n2Cc2cccc(F)c2)C1` (centres unmarked) [Example 184, [6-Cyano-9-(3-fluoro-benzyl)-2,3,4,9-tetrahydro-1H-carbazol-3-yl]-carbamic acid methyl ester] showed an EC50 [1] of 27.3 nM, an Emax [1, 6] of 78.9% and a Ki [2] of 2.8 nM.
With `CC(C)C(=O)NC1CCc2c(c3cc(Cl)ccc3n2Cc2ccccc2O)C1` (centres unmarked) [Example 101, N-[6-Chloro-9-(2-hydroxy-benzyl)-2,3,4,9-tetrahydro-1H-carbazol-3-yl]-isobutyramide] the EC50 [1] was 4.1 nM, the Emax [1, 6] was 65.3% and the Ki [2] was 5.2 nM.
In the case of `COc1ccc2c(c1)c1c(n2Cc2ccccn2)CCC(NC(=O)C(C)C)C1` (centres unmarked) [Example 143, N-(6-methoxy-9-pyridin-2-ylmethyl-2,3,4,9-tetrahydro-1H-carbazol-3-yl)-isobutyramide], the EC50 [1] is reported as 351 nM, the Emax [1, 6] is reported as 80.3% and the Ki [2] is reported as 362 nM.
In the case of `CC(C)C(=O)NC1CCc2c(c3cc(-c4cnc(N)s4)ccc3n2Cc2cccc(F)c2)C1` (centres unmarked) [Example 140], the EC50 [1] is reported as 44 nM, the Emax [1, 6] is reported as 74.6% and the Ki [2] is reported as 29 nM.
`COC(=O)N[C@@H]1CCc2c(c3cc(C#N)ccc3n2Cc2cccc(F)n2)C1` [Example 186, (R)-[6-Cyano-9-(6-fluoro-pyridin-2-ylmethyl)-2,3,4,9-tetrahydro-1H-carbazol-3-yl]-carbamic acid methyl ester] was tested, and the EC50 [1] was 17.4 nM, the Emax [1, 6] was 103% and the Ki [2] was 7.1 nM.
`COc1ccc2c(c1)c1c(n2Cc2ccncc2)CCC(NC(=O)C(C)C)C1` (centres unmarked) [Example 145] gave an EC50 [1] of 2050 nM, an Emax [1, 6] of 46.6% and a Ki [2] of 1400 nM.
For `N#Cc1ccc2c(c1)c1c(n2Cc2cccc(F)c2)CC[C@@H](NC(=O)C2CC2)C1` [Example 194, (R)-Cyclopropanecarboxylic acid[6-cyano-9-(3-fluorobenzyl)-2,3,4,9-tetrahydro-1H-carbazol-3-yl]amide], the EC50 [1] was 2 nM, the Emax [1, 6] was 95.5% and the Ki [2] was 1.3 nM.
Work on `COC(=O)N[C@@H]1CCc2c(c3cc(C#N)ccc3n2Cc2ccccn2)C1` [Example 185, (6(R)-Cyano-9-pyridin-2-ylmethyl-2,3,4,9-tetrahydro-1H-carbazol-3-yl)-carbamic acid methyl ester] yielded an Emax [1, 3] of 77.5%, an EC50 [1, 4] of 76 nM and a Ki [2, 5] of 23.3 nM.
With `CC(C)C(=O)NC1CCc2c(c3cc(C#N)cc(Cl)c3n2Cc2cccc(F)c2)C1` (centres unmarked) [Example 119, N-[8-Chloro-6-cyano-9-(3-fluoro-benzyl)-2,3,4,9-tetrahydro-1H-carbazol-3-yl]-isobutyramide] the Emax [1, 3] was 99.1%, the EC50 [1, 4] was 34.2 nM and the Ki [2, 5] was 7.3 nM.
Work on `CC(C)C(=O)NC1CCc2c(c3cc(-c4cccnc4)ccc3n2Cc2cccc(F)c2)C1` (centres unmarked) [Example 132] yielded an EC50 [1] of 5.4 nM, an Emax [1, 6] of 83.9% and a Ki [2] of 7.4 nM.
With `CC(C)C(=O)NC1CCc2c(c3cc(C#N)cc(F)c3n2Cc2cccc(F)c2)C1` (centres unmarked) [Example 121, N-[6-Cyano-8-fluoro-9-(3-fluoro-benzyl)-2,3,4,9-tetrahydro-1H-carbazol-3-yl]-isobutyramide] the EC50 [1] was 6.2 nM, the Emax [1, 6] was 110% and the Ki [2] was 2.9 nM.
Molecule `CO/N=C/c1ccc2c(c1)c1c(n2Cc2csc(C)n2)CC[C@@H](NC(=O)C(C)C)C1` [Example 212, (R)-N-[6-(Methoxyimino-methyl)-9-(2-methyl-thiazol-4-ylmethyl)-2,3,4,9-tetrahydro-1H-carbazol-3-yl]-isobutyramide] has an EC50 [1] of 7.8 nM, an Emax [1, 6] of 90.4% and a Ki [2] of 16.7 nM.
For `CC(C)C(=O)NC1CCc2c(c3cc(C#N)ccc3n2Cc2cncs2)C1` (centres unmarked) [Example 159, N-(6-Cyano-9-thiazol-5-ylmethyl-2,3,4,9-tetrahydro-1H-carbazol-3-yl)-isobutyramide], the EC50 [1] was 35.8 nM, the Emax [1, 6] was 80.9% and the Ki [2] was 34.4 nM.
Molecule `CC(C)C(=O)NC1CCc2c(c3cc(C#N)c(Cl)cc3n2Cc2cccc(F)c2)C1` (centres unmarked) [Example 118, N-[7-Chloro-6-cyano-9-(3-fluoro-benzyl)-2,3,4,9-tetrahydro-1H-carbazol-3-yl]-isobutyramide] has an EC50 [1] of 31.7 nM, an Emax [1, 6] of 124% and a Ki [2] of 5.9 nM.
Molecule `CC(C)C(=O)NC1CCc2c(c3cc(O)ccc3n2Cc2cccc(F)c2)C1` (centres unmarked) [Example 91, N-[9-(3-Fluoro-benzyl)-6-hydroxy-2,3,4,9-tetrahydro-1H-carbazol-3-yl]-isobutyramide] has an EC50 [1] of 97.1 nM, an Emax [1, 6] of 86.9% and a Ki [2] of 11.8 nM.
Work on `CC(C)C(=O)N[C@@H]1CCc2c(c3cc(-c4cccnc4)ccc3n2Cc2cccc(F)c2)C1` [Example 133] yielded an EC50 [1] of 7.5 nM, an Emax [1, 6] of 66.4% and a Ki [2] of 4.6 nM.
For `CC(C)C(=O)NC1CCc2c(c3cc(-c4ccc(F)nc4)ccc3n2Cc2cccc(F)c2)C1` (centres unmarked) [Example 135], the Emax [1, 3] was 66%, the EC50 [1, 4] was 62.3 nM and the Ki [2, 5] was 20.4 nM.
`CON(C)C(=O)NC1CCc2c(c3cc(C#N)ccc3n2Cc2cccc(F)c2)C1` (centres unmarked) [Example 180, 3-[6-Cyano-9-(3-fluorobenzyl)-2,3,4,9-tetrahydro-1H-carbazol-3-yl]-1-methoxy-1-methyl-urea] showed an EC50 [1] of 2.2 nM, an Emax [1, 6] of 97% and a Ki [2] of 4.6 nM.
Molecule `CC(C)C(=O)NC1CCc2c(c3cc(C(=O)C(F)(F)F)ccc3n2Cc2cccc(F)c2)C1` (centres unmarked) [Example 210, N-[9-(3-Fluoro-benzyl)-6-(2,2,2-trifluoro-acetyl)-2,3,4,9-tetrahydro-1H-carbazol-3-yl]-isobutyramide] has an EC50 [1] of 17.6 nM, an Emax [1, 6] of 71.2% and a Ki [2] of 15.5 nM.
`CNC(=O)NC1CCc2c(c3cc(C#N)ccc3n2Cc2cccc(F)c2)C1` (centres unmarked) [Example 179, 1-[6-Cyano-9-(3-fluorobenzyl)-2,3,4,9-tetrahydro-1H-carbazol-3-yl]-3-methyl-urea] gave an Emax [1, 3] of 114%, an EC50 [1, 4] of 24.1 nM and a Ki [2, 5] of 14.6 nM.

Source: patent US7935722B2 (Eli Lilly and Company, priority 2005, dated 2011)
